Legend:
[1] = tested on: P(40), P(80), S(80) cell fractions of Methylobacterium sp. (CRL-26, NRRL B-11,222); experiment: Methane and propylene oxidation by cell fractions; format: biochemical; conditions: 30° C.
Protocol: (§1) Cells were washed twice with 25 mM potassium phosphate buffer, pH 7.0 containing 5 mM MgCl2. Cells were suspended in the same buffer. The cell suspensions at 4° C. were disintegrated by a single passage through a French Pressure cell (15,000 lb./in.^2) and centrifuged at 5000×g. for 15 min. to remove unbroken bacteria. The supernatant solution (crude extract) was then centrifuged at 40,000×g. for 30 min., yielding particulate P(40) and soluble S(40) fractions. The S(40) fraction was subsequently centrifuged at 80,000×g. for 60 min., yielding particulate P(80) and soluble S(80) fractions. The particulate fractions [P(40) and P(80)] were suspended in 25 mM potassium phosphate buffer, pH 7.0, containing 5 mM MgCl2 and homogenized at 4° C.
(§2) The oxidation of methane and propylene by particulate [(P)40 and (P)80] fractions and soluble [S(80)] fraction was measured at 30° C. by estimating the production of methanol and propylene oxide, respectively. The reaction mixtures contained in 1.0 ml: 150 mM potassium phosphate buffer, pH 7.0 containing 5 mM MgCl2, 0.6 ml; […] NADH, and cellular fraction.
(§3) Reaction mixtures were contained in 10 ml vials at 4° C. Vials were sealed with rubber caps. The gaseous phase in the vials was removed using vacuum and then was replaced with a gas mixture of methane or propylene and oxygen at a 1:1, v/v ratio. Oxidation of other gaseous n-alkanes and n-alkenes was examined as described above. For liquid substrates, 10 μl of substrate was used directly.
(§4) The products of epoxidation of n-alkenes and hydroxylation of n-alkanes were assayed by flame ionization gas chromatography using a stainless steel column (12'×1/8") packed with 10% Carbowax 20 M on 80/100 Chromosorb W and Porapak Q column. The column temperature was maintained isothermally at 120° C. The carrier gas flow rate was 30 ml/min. of helium. The various products were identified by retention time comparisons and co-chromatography with authentic standards.
(§5) Specific activities were expressed as μ moles of products formed per hour per mg. protein. Concentrations of protein in various fractions were determined by the method of Lowry et al., J. Biol. Chem. 193: 265-275 (1951).

[2] = target: T1, P(40), P(80), S(80) cell fractions of Methylococcus capsulatus (Texas, ATCC 19,069) (Methylococcus capsulatus, UniProt G1UBD1+Q603F1+Q607G3); experiment: Methane and propylene oxidation by cell fractions; format: biochemical
T1 sequence (G1UBD1 33-414): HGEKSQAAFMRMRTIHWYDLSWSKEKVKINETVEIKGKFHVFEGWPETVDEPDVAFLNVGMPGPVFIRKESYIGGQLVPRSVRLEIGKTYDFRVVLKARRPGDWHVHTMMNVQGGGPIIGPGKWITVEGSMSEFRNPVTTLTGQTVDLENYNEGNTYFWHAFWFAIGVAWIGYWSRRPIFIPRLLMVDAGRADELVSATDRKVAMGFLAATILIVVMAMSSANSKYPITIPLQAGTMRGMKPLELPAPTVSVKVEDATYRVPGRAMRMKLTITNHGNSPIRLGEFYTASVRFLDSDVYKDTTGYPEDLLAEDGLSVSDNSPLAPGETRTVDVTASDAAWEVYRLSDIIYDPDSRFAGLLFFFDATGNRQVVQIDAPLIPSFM
T1 sequence (Q607G3 1-247): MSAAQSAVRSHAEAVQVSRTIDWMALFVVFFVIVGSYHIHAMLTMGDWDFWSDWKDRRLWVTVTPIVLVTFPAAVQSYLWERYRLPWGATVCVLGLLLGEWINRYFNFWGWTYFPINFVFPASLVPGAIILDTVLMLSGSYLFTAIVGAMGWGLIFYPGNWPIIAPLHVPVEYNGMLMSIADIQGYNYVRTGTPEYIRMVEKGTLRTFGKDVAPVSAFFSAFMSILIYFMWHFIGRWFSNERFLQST
T1 sequence (Q603F1 1-260): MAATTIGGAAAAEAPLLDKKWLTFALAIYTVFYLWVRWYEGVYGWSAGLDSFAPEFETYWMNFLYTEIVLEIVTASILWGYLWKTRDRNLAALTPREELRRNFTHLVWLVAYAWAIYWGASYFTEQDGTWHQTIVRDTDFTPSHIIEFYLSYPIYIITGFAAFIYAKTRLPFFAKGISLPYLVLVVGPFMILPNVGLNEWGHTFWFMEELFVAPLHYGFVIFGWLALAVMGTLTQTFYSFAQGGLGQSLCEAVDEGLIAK
Protocol: as §1, §2, §3, §4, §5

[3] = tested on: P(40), P(80), S(80) cell fractions of Methylomonas sp. (CRL-17, NRRL B-11,208); experiment: Methane and propylene oxidation by cell fractions; format: biochemical; conditions: 30° C.
Protocol: as §1, §2, §3, §4, §5

[4] = tested on: P(40), P(80), S(80) cell fractions of Methylosinus trichosporium (OB3b, NRRL B-11,196); experiment: Methane and propylene oxidation by cell fractions; format: biochemical; conditions: S(80) fraction, 30° C.
Protocol: as §1, §2, §3, §4, §5

[5] = tested on: Methylococcus capsulatus (CRL M1, NRRL B-11,219); experiment: Oxidation/epoxidation by washed cell suspensions; format: cell-based

For `C=CC` [Propylene], the “Propylene-Oxidizing Activity, P(40)” value ([1]; P(40) fraction) was 1.2 μmoles of product formed per h, the “Propylene-Oxidizing Activity, P(80)” value ([1]; P(80) fraction) was 1.1 μmoles of product formed per h and the “Propylene-Oxidizing Activity, S(80)” value ([1]; S(80) fraction) was 0 μmoles of product formed per h. The “% Distribution in Cell Fraction, Propylene-Epoxidizing Activity, P(40)” value ([2]; P(40) fraction) was 89%, the “Propylene-Oxidizing Activity, P(40)” value ([2]; P(40) fraction, 30° C.) was 2.6 μmoles of product formed per h and the “% Distribution in Cell Fraction, Propylene-Epoxidizing Activity, P(80)” value ([2]; P(80) fraction) was 11%. For the same compound, the “Propylene-Oxidizing Activity, P(80)” value ([2]; P(80) fraction, 30° C.) was 2.0 μmoles of product formed per h, the “% Distribution in Cell Fraction, Propylene-Epoxidizing Activity, S(80)” value ([2]; S(80) fraction) was 0% and the “Propylene-Oxidizing Activity, S(80)” value ([2]; S(80) fraction, 30° C.) was 0 μmoles of product formed per h. The “Propylene-Oxidizing Activity, P(40)” value ([3]; P(40) fraction) was 2.2 μmoles of product formed per h, the “Propylene-Oxidizing Activity, P(80)” value ([3]; P(80) fraction) was 2.0 μmoles of product formed per h and the “Propylene-Oxidizing Activity, S(80)” value ([3]; S(80) fraction) was 0 μmoles of product formed per h. The “Propylene-Oxidizing Activity, S(80)” value [4] was 0 μmoles of product formed per h, the “Epoxidation Rate, Propylene oxide” value ([5]; propylene alone (control), 1 Hr, 50% O2) was 2.0 μmoles/0.5 ml and the “Epoxidation Rate, Propylene oxide” value ([5]; propylene alone (control), 2 Hr) was 3.8 μmoles/0.5 ml.
`C` [Methane] was tested, and the “Methane-Oxidizing Activity, P(40)” value ([1]; P(40) fraction) was 2.7 μmoles of product formed per h, the “Methane-Oxidizing Activity, P(80)” value ([1]; P(80) fraction) was 2.8 μmoles of product formed per h and the “Methane-Oxidizing Activity, S(80)” value ([1]; S(80) fraction) was 0 μmoles of product formed per h. For the same compound, the “% Distribution in Cell Fraction, Methane-Hydroxylating Activity, P(40)” value ([2]; P(40) fraction) was 90%, the “Methane-Oxidizing Activity, P(40)” value ([2]; P(40) fraction, 30° C.) was 3.8 μmoles of product formed per h and the “% Distribution in Cell Fraction, Methane-Hydroxylating Activity, P(80)” value ([2]; P(80) fraction) was 10%. The “Methane-Oxidizing Activity, P(80)” value ([2]; P(80) fraction, 30° C.) was 3.9 μmoles of product formed per h, the “% Distribution in Cell Fraction, Methane-Hydroxylating Activity, S(80)” value ([2]; S(80) fraction) was 0% and the “Methane-Oxidizing Activity, S(80)” value ([2]; S(80) fraction, 30° C.) was 0 μmoles of product formed per h. The “Methane-Oxidizing Activity, P(40)” value ([3]; P(40) fraction) was 2.9 μmoles of product formed per h, the “Methane-Oxidizing Activity, P(80)” value ([3]; P(80) fraction) was 2.7 μmoles of product formed per h and the “Methane-Oxidizing Activity, S(80)” value ([3]; S(80) fraction) was 0 μmoles of product formed per h. The “Methane-Oxidizing Activity, S(80)” value [4] was 0 μmoles of product formed per h, the “Epoxidation Rate, Propylene oxide” value ([5]; Propylene + 5% methane, 1 Hr) was 2.0 μmoles/0.5 ml and the “Epoxidation Rate, Propylene oxide” value ([5]; Propylene + 5% methane, 2 Hr) was 4.0 μmoles/0.5 ml. The “Epoxidation Rate, Propylene oxide” value ([5]; Propylene + 5% methane, 3 Hr) was 4.1 μmoles/0.5 ml, the “Epoxidation Rate, Propylene oxide” value ([5]; Propylene + 7% methane, 1 Hr) was 2.3 μmoles/0.5 ml and the “Epoxidation Rate, Propylene oxide” value ([5]; Propylene + 7% methane, 2 Hr) was 4.7 μmoles/0.5 ml. For the same compound, the “Epoxidation Rate, Propylene oxide” value ([5]; Propylene + 7% methane, 3 Hr) was 4.8 μmoles/0.5 ml, the “Epoxidation Rate, Propylene oxide” value ([5]; Propylene + 15% methane, 1 Hr) was 3.5 μmoles/0.5 ml and the “Epoxidation Rate, Propylene oxide” value ([5]; Propylene + 15% methane, 2 Hr) was 6.4 μmoles/0.5 ml. The “Epoxidation Rate, Propylene oxide” value ([5]; Propylene + 15% methane, 3 Hr) was 6.5 μmoles/0.5 ml, the “Epoxidation Rate, Propylene oxide” value ([5]; Propylene + 20% methane, 1 Hr) was 3.8 μmoles/0.5 ml and the “Epoxidation Rate, Propylene oxide” value ([5]; Propylene + 20% methane, 2 Hr) was 7.1 μmoles/0.5 ml. The “Epoxidation Rate, Propylene oxide” value ([5]; Propylene + 20% methane, 3 Hr) was 7.2 μmoles/0.5 ml and the “Inhibition of epoxidation of propylene to propylene oxide” value ([5]; cell suspension, in the presence of methane) was 50%.

— patent US4368267A, “Epoxidation of lower α-olefins” (priority 1980, dated 1983)
